According to patent publication US8883963B2 (Cadila Healthcare Limited, priority 2007, dated 2014):

Legend:
[1] = Stability in liver microsomes; type: in vitro ADME; settings: 2 μM peptidomimetic, human liver microsomes, 37° C.; for half-life at 2 μM: pH 7.8, read-out: half-life (t1/2) when incubated with liver microsomes
Protocol: (§1) Reactions were terminated by the addition of TFA/H2O (15 mL, 10% (v/v)). […] The column was equilibrated with TFA/H20, at a flow rate of 1 mL/min.

[2] = Stability in human plasma; type: in vitro ADME; settings: 2 μM peptidomimetic, pooled human plasma, 37° C.; for half-life at 2 μM: pH 7.8, read-out: half-life (t1/2) when incubated with human plasma
Protocol: as §1

[3] = Stability in simulated intestinal fluid; type: in vitro ADME; settings: 2 μM peptidomimetic, simulated intestinal fluid pH 7.5, 37° C.; for half-life at 2 μM: read-out: half-life (t1/2) when incubated with simulated intestinal fluid
Protocol: as §1

[4] = Stability in simulated gastric fluid; type: in vitro ADME; settings: 2 μM peptidomimetic, simulated gastric fluid pH 1.5, 37° C.; for half-life at 2 μM: read-out: half-life (t1/2) when incubated with simulated gastric fluid
Protocol: as §1

Human GLP-1 receptor = molecular target: T1, Human GLP-1 receptor (Homo sapiens, UniProt P43220); assay: In vitro Human GLP-1 R agonist activity (cyclic AMP determination) in CHO/human GLP1R cells; type: cell-based
T1 construct: The full-length cDNA was cloned in pcDNA3.1(+); expressed in transfected cells
T1 sequence (P43220 24-463): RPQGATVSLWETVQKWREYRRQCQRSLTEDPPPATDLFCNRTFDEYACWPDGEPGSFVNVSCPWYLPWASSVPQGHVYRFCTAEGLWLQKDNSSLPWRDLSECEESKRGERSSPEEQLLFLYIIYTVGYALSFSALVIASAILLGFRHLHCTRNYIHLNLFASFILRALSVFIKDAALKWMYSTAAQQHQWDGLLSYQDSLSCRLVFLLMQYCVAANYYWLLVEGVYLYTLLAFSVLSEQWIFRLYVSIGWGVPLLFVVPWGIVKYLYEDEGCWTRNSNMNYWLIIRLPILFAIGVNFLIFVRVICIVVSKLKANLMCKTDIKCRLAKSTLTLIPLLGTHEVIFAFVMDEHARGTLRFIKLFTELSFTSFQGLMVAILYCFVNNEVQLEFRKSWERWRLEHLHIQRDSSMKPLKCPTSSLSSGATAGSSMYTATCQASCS
Protocol: The novel peptidomimetics were screened for Human GLP-1 receptor (HGLP-1 R) agonist activity (in vitro), using the cAMP cell-based assay, in stably transfected CHO/human GLP1R cells. […] CHO cells were grown in Ham's F12 medium containing L-Glutamine (2 mM), HEPES (25 mM), NaHCO3 (1.1 g/L) and supplemented with NewBorn Calf Serum (NBCS; 10%), Penicillin (50 U/ml (v/v)) and Streptomycin (50 ug/ml (v/v)). Cells were split every 3 days 1:8.
The cDNA encoding the human GLP-1 receptor was isolated by RT-PCR according to standard protocol. The full-length cDNA was cloned in pcDNA3.1(+). […] Clones expressing the receptor were generated by G418 (800 μg/ml active, Sigma) selection. The stable clones were thereafter maintained at 500 ug/ml (G418). The selected clone was used between passages 9-25 for cAMP assays.
The trypsin was inactivated using Ham's F12 medium containing 10% NBCS and the cells were suspended in 2 ml of complete medium. […] The medium was aspirated off from the 12 well plate and the cells were washed once using Ham's F12 (plain). […] The cells were incubated with the test compounds for 30 min in humidified atmosphere and 37° C. After the incubation, the medium was removed and cells were washed once with plain Ham's F12. Subsequently, the cells were lysed by adding 500 ul of ice cold 0.1 N HCl to each well and shaking for 30 minutes at 200 rpm. The cells were then scrapped, the lysate was collected in micro centrifuge tubes and centrifuged at 12000 rpm for 10 min to remove the debris. 300 ul of supernatant from each micro-centrifuge tube was then removed into a glass tube and dried under N2 for 30 min, for cAMP estimation. The total cAMP was estimated from the sample according to the manufacturer's protocol using Cyclic AMP immunoassay kit (R&D systems, Minneapolis. MN). The remaining supernatant is used to determine the protein concentration using micro BCA (Sigma). Data is calculated as percent of control (Vehicle: water) and expressed as Mean±SD.

DPP IV = DPP IV (Homo sapiens, UniProt P27487); assay: Stability against DPP IV enzyme; type: in vitro ADME; settings: 37° C.; for % degradation of peptidomimetics in 24 h when incubated with DPP-IV enzyme: 2 μM peptidomimetic; for half-life at 2 μM: DPP IV enzyme, pH 7.8, 2 μM peptidomimetic, read-out: half-life (t1/2) when incubated with DPP-IV enzyme
Chain of DPP IV (P27487 whole entry, species assumed): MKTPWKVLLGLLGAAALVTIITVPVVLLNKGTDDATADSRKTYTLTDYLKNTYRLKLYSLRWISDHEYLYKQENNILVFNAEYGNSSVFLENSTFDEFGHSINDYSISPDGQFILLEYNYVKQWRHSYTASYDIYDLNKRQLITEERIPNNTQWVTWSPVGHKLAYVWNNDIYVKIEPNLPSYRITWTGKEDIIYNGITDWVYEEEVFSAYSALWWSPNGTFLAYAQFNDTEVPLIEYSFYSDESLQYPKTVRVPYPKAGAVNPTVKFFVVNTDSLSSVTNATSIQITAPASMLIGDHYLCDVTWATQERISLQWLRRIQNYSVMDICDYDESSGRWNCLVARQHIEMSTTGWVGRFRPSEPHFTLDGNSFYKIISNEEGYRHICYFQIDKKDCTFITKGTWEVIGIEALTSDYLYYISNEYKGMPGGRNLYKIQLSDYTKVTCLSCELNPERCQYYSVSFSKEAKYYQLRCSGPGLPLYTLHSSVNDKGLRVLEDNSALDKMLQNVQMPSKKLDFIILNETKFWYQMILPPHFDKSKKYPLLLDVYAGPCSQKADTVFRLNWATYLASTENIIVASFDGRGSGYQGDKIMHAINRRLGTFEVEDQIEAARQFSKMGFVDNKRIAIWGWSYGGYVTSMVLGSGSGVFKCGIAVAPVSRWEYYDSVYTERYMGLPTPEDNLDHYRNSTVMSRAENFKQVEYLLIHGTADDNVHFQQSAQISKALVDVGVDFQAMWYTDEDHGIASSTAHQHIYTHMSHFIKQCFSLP
Protocol: as §1

Compound	half-life (t1/2) when incubated with liver microsomes [1]	% degradation of peptidomimetics in 24 h when incubated with liver microsomes [1]	% degradation of peptidomimetics in 24 h when incubated with human plasma [2]	half-life at 2 μM [2]	% degradation of peptidomimetics in 24 h when incubated with simulated intestinal fluid [3]	half-life at 2 μM [3]	% degradation of peptidomimetics in 24 h when incubated with simulated gastric fluid [4]	half-life at 2 μM [4]	Human GLP-1 R activity (cAMP release), % activity with respect to control (Human GLP-1 receptor; 1 nM test compound)	Human GLP-1 R activity (cAMP release), % activity with respect to control (Human GLP-1 receptor; 10 nM test compound)	Human GLP-1 R activity (cAMP release), % activity with respect to control (Human GLP-1 receptor; 100 nM test compound)	Human GLP-1 R activity (cAMP release), % activity with respect to control (Human GLP-1 receptor; 1 μM test compound)	Human GLP-1 R activity (cAMP release), % activity with respect to control (Human GLP-1 receptor; 10 μM test compound)	% degradation of peptidomimetics in 24 h when incubated with DPP-IV enzyme (DPP IV)	half-life at 2 μM (DPP IV)	half-life at 2 μM [1]	half-life (t1/2) when incubated with simulated intestinal fluid [3]	half-life (t1/2) when incubated with simulated gastric fluid [4]
CCc1cc(OC)ccc1-c1ccc(CC(CNC(CCCc2ccccc2F)C(N)=O)NC[C@H](CC(=O)O)NC(=O)[C@H](CO)NC(=O)[C@@H](NC(=O)C(C)(Cc2ccccc2F)NC(=O)[C@@H](NC(=O)CNC(=O)[C@H](CCC(N)=O)NC(=O)C(C)(C)NC(=O)[C@@H](N)Cc2c[nH]cn2)[C@H](C)O)[C@H](C)O)cc1 (single isomer, unassigned) [compound 203]	(5) h	31%	00%	> 24 h	00%	> 24 h	00%	> 24 h	86 ± 0.11%	99 ± 0.09%	99 ± 0.06%	99 ± 0.14%	99 ± 0.19%	00%	> 24 h			
CCc1cc(OC)ccc1-c1ccc(CC(NC(=O)[C@H](CC(=O)O)NC(=O)[C@H](CO)NC(=O)[C@@H](NC(=O)[C@H](Cc2ccccc2)NC(=O)[C@@H](NC(=O)CNC(=O)[C@H](CCC(N)=O)NC(=O)C(C)(C)NC(=O)[C@@H](N)Cc2c[nH]cn2)[C@@H](C)O)[C@@H](C)O)C(=O)NC(CCCc2ccc(OC)cc2Cl)C(N)=O)cc1 (single isomer, unassigned) [compound 68]		83%	75%	8 h	46%		12%		39 ± 0.11%	80 ± 0.09%	88 ± 0.06%	96 ± 0.14%	99 ± 0.19%	74%	9 h	1 h	(6) h	(8) h
CCc1cc(OC)ccc1-c1ccc(CC(CNC(CCCc2ccccc2)C(N)=O)NC[C@H](CC(=O)O)NC(=O)[C@H](CO)NC(=O)[C@@H](NC(=O)C(C)(Cc2ccccc2F)NC(=O)[C@@H](NC(=O)CNC(=O)[C@H](CCC(N)=O)NC(=O)C(C)(C)NC(=O)[C@H](Cc2c[nH]cn2)NC(=O)OC)[C@H](C)O)[C@H](C)O)cc1 (single isomer, unassigned) [compound 198]		82%	00%	> 24 h	00%	> 24 h	49%	4 h	82 ± 0.22%	87 ± 0.12%	92 ± 0.14%	99 ± 0.22%	99 ± 0.26%	00%	> 24 h	2 h		
CCc1cc(OC)ccc1-c1ccc(CC(NC(=O)[C@H](CC(=O)O)NC(=O)[C@H](CO)NC(=O)[C@@H](NC(=O)C(C)(Cc2ccccc2F)NC(=O)[C@@H](NC(=O)CNC(=O)[C@H](CC(C(F)(F)F)C(F)(F)F)NC(=O)C(C)(C)NC(=O)[C@@H](N)Cc2c[nH]cn2)[C@@H](C)O)[C@H](C)O)C(=O)NC(CCCc2ccccc2F)C(N)=O)cc1 (single isomer, unassigned) [compound 224]	(5) h	26%	00%	> 24 h	00%	> 24 h	00%	> 24 h	99 ± 0.06%	99 ± 0.06%	99 ± 0.08%	99 ± 0.10%	99 ± 0.12%	00%	> 24 h			
CCc1cc(OC)ccc1-c1ccc(CC(CNC(CCCc2ccccc2)C(N)=O)NC(=O)[C@H](CC(=O)O)NC(=O)[C@H](CO)NC(=O)[C@@H](NC(=O)C(C)(Cc2ccccc2F)NC(=O)[C@@H](NC(=O)CNC(=O)[C@H](CCC(N)=O)NC(=O)C(C)(C)NC(=O)[C@H](Cc2c[nH]cn2)NC(C)=O)[C@H](C)O)[C@H](C)O)cc1 (single isomer, unassigned) [compound 185]		84%	00%	> 24 h	00%	> 24 h	55%	4 h	46 ± 0.022%	85 ± 0.46%	90 ± 0.41%	99 ± 0.66%	99 ± 0.03%	00%	> 24 h	2 h		
CCc1cc(OC)ccc1-c1ccc(CC(NC(=O)[C@H](CC(=O)O)NC(=O)[C@H](CO)NC(=O)[C@@H](NC(=O)[C@H](Cc2ccccc2)NC(=O)[C@@H](NC(=O)CNC(=O)[C@H](CCC(N)=O)NC(=O)[C@H](C)NC(=O)[C@@H](N)Cc2c[nH]cn2)[C@@H](C)O)[C@@H](C)O)C(=O)NC(CCCc2ccc(Cl)cc2C)C(N)=O)cc1 (single isomer, unassigned) [compound 16]		78%	71%	8 h	40%		14%		99 ± 0.11%	99 ± 0.13%	99 ± 0.16%	99 ± 0.06%	99 ± 0.10%	70%	9 h	1 h	(6) h	(8) h
